Common to all, as to test: SILAC proteomics / in-gel fluorescence, competition of probe 13-t labeling by 3a
Assay [1] concerns the target T1, proteins of HEK293T cells transiently overexpressing caspase-6 (Homo sapiens, UniProt O75844).
T1 sequence (O75844 1-475): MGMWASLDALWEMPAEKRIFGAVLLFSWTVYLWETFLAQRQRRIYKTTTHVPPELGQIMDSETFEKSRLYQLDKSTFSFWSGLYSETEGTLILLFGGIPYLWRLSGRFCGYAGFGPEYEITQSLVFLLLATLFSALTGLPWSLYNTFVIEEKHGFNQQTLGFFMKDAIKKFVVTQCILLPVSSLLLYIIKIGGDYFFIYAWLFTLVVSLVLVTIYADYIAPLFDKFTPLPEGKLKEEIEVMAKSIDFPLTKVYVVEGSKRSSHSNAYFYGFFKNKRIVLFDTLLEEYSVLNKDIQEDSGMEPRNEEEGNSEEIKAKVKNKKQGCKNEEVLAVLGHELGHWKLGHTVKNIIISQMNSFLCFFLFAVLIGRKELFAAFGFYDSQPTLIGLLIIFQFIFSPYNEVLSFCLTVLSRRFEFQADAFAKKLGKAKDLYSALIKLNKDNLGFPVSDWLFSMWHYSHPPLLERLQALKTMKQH

Assay [2] has as its target proteins of HEK293T cells transiently overexpressing caspase-6 (Homo sapiens, UniProt P23526). Particulars: Comp; protein AHCY P23526.
The target of assay [3] is proteins of HEK293T cells transiently overexpressing caspase-6 (Homo sapiens, UniProt P31689).
Sequence of proteins of HEK293T cells transiently overexpressing caspase-6 (Homo sapiens, UniProt P31689) (P31689 whole entry): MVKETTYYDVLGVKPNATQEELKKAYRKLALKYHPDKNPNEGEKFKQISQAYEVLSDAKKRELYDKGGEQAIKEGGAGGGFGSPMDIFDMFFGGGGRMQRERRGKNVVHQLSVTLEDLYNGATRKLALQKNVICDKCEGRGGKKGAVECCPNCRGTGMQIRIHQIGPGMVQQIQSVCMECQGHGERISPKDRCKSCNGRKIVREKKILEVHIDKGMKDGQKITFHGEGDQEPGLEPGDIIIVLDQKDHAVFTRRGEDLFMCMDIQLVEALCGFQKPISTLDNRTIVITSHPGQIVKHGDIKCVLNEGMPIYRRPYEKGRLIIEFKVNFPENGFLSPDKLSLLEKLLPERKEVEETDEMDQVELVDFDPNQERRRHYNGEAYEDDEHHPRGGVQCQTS
Assay [4] concerns the target proteins of HEK293T cells transiently overexpressing caspase-6 (Homo sapiens, UniProt P35606). Particulars: Comp; protein COPB2 P35606.
Assay [5] addresses proteins of HEK293T cells transiently overexpressing caspase-6 (Homo sapiens, UniProt P36578). Particulars: Comp; protein RPL4 P36578.
The target of assay [6] is proteins of HEK293T cells transiently overexpressing caspase-6 (Homo sapiens, UniProt P39023). Particulars: Comp; protein RPL3 P39023.
Assay [7] concerns the target proteins of HEK293T cells transiently overexpressing caspase-6 (Homo sapiens, UniProt P42704). Particulars: Comp; protein LRPPRC P42704.
The target of assay [8] is proteins of HEK293T cells transiently overexpressing caspase-6 (Homo sapiens, UniProt P46060). The conditions noted are these: Comp; protein RANGAP1 P46060.
The target of assay [9] is proteins of HEK293T cells transiently overexpressing caspase-6 (Homo sapiens, UniProt P63261). The conditions noted are these: Comp; protein ACTG1 P63261.
Assay [10] has as its target proteins of HEK293T cells transiently overexpressing caspase-6 (Homo sapiens, UniProt Q00839). Particulars: Comp; protein HNRNPU Q00839.
Assay [11] has as its target proteins of HEK293T cells transiently overexpressing caspase-6 (Homo sapiens, UniProt Q15185). The conditions noted are these: Comp; protein PTGES3 Q15185.
Assay [12] deals with proteins of HEK293T cells transiently overexpressing caspase-6 (Homo sapiens, UniProt Q15233). The conditions noted are these: Comp; protein NONO Q15233.
Sequence of proteins of HEK293T cells transiently overexpressing caspase-6 (Homo sapiens, UniProt Q15233) (Q15233 whole entry): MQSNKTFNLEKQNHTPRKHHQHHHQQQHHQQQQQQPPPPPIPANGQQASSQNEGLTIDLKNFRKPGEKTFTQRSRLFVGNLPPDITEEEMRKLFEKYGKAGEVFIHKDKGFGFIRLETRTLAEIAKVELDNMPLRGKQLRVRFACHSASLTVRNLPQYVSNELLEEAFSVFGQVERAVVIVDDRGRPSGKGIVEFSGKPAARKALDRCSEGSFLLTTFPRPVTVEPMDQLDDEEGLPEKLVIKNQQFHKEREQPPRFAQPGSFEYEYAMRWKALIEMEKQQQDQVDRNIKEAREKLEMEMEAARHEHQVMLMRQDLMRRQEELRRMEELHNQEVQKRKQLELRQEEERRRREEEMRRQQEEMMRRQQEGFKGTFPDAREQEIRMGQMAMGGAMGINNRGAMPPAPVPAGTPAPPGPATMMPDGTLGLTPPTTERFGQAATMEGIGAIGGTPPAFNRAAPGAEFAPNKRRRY
Assay [13] has as its target proteins of HEK293T cells transiently overexpressing caspase-6 (Homo sapiens, UniProt Q86VP6). The conditions noted are these: Comp; protein CAND1 Q86VP6.
For assay [14], the target named is proteins of HEK293T cells transiently overexpressing caspase-6 (Homo sapiens, UniProt Q9BZZ5). The conditions noted are these: Comp; protein API5 Q9BZZ5.
Assay [15] has as its target proteins of HEK293T cells transiently overexpressing caspase-6 (Homo sapiens, UniProt Q9Y230). Particulars: Comp; protein RUVBL2 Q9Y230.
The mark [16] stands for this setting: protein ZMPSTE24 (O75844), Exp Comp, analysis C6, p 0.5000, 2 peptides.
[17] abbreviates: protein DNAJA1 (P31689), Exp Comp, analysis C6, p 0.0625, 5 peptides.

Each structure is given as a SMILES string.

Sequence of proteins of HEK293T cells transiently overexpressing caspase-6 (Homo sapiens, UniProt Q86VP6) (Q86VP6 whole entry): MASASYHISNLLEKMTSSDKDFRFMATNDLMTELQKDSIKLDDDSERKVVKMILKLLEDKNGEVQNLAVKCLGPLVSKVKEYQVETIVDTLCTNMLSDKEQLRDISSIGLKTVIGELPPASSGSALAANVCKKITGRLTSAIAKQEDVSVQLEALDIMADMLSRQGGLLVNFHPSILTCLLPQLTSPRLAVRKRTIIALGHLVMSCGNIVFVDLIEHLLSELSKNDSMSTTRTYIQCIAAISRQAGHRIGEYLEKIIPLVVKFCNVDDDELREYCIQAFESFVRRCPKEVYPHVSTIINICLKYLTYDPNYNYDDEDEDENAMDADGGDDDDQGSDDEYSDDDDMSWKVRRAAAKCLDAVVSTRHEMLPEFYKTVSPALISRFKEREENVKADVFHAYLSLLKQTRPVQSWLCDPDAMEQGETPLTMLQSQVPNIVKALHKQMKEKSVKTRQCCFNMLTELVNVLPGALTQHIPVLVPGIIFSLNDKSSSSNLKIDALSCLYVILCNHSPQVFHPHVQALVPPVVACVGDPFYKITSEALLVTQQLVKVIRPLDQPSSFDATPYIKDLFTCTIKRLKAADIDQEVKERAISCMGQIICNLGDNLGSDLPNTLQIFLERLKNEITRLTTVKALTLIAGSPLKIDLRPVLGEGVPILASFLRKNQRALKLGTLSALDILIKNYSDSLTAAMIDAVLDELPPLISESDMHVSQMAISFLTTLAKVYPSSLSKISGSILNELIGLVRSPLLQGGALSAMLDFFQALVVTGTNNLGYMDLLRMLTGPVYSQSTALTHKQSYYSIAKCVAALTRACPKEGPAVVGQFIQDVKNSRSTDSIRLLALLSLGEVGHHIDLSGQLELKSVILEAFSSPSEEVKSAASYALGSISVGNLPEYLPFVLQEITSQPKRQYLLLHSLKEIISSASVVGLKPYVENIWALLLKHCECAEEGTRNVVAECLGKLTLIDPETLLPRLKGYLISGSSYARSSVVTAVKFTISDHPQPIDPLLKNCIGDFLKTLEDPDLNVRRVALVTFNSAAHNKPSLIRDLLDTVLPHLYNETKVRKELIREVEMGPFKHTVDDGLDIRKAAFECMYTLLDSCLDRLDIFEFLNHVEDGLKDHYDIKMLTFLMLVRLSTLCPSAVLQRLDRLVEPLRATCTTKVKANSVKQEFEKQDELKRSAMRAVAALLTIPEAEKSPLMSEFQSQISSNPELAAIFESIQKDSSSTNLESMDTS
Sequence of proteins of HEK293T cells transiently overexpressing caspase-6 (Homo sapiens, UniProt P23526) (P23526 whole entry): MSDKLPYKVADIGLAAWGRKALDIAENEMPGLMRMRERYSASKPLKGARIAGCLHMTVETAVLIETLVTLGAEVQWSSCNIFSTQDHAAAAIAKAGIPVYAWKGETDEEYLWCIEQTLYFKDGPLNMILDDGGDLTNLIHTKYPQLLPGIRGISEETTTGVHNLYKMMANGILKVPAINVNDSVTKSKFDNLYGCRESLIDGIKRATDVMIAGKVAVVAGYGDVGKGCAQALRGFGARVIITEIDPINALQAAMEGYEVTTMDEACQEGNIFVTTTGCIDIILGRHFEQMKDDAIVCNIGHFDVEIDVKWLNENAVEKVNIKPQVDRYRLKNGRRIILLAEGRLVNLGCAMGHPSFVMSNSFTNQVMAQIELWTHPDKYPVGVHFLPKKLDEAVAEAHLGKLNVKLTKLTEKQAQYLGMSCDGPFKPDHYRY
Sequence of proteins of HEK293T cells transiently overexpressing caspase-6 (Homo sapiens, UniProt Q15185) (Q15185 whole entry): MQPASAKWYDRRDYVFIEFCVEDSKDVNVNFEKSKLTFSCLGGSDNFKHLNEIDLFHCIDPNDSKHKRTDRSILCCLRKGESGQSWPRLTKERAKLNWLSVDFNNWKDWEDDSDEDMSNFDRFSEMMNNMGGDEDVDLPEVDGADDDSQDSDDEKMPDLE
Sequence of proteins of HEK293T cells transiently overexpressing caspase-6 (Homo sapiens, UniProt P35606) (P35606 whole entry): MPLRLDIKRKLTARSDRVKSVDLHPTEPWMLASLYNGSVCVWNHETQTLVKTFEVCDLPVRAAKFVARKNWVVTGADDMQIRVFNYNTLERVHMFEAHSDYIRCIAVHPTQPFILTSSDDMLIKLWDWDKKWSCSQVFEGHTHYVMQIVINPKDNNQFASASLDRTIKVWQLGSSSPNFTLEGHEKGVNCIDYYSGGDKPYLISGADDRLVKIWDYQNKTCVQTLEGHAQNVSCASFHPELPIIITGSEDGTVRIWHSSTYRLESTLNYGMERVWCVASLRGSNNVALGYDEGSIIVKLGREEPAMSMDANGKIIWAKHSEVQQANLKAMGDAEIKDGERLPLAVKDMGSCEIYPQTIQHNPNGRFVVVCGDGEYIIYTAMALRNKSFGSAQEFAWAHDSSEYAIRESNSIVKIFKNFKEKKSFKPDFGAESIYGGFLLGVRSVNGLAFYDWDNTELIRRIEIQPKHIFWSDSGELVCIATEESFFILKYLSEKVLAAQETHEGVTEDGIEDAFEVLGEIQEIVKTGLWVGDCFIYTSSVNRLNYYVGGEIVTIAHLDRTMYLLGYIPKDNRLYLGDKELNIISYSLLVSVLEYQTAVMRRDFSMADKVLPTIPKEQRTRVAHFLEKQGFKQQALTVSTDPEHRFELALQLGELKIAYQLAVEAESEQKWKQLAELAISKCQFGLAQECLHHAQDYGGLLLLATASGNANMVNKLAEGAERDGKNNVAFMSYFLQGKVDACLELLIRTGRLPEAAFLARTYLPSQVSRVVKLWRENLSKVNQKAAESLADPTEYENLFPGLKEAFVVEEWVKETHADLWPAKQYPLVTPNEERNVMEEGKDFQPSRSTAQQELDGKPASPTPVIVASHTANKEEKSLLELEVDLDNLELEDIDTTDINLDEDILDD
Sequence of proteins of HEK293T cells transiently overexpressing caspase-6 (Homo sapiens, UniProt Q9Y230) (Q9Y230 whole entry): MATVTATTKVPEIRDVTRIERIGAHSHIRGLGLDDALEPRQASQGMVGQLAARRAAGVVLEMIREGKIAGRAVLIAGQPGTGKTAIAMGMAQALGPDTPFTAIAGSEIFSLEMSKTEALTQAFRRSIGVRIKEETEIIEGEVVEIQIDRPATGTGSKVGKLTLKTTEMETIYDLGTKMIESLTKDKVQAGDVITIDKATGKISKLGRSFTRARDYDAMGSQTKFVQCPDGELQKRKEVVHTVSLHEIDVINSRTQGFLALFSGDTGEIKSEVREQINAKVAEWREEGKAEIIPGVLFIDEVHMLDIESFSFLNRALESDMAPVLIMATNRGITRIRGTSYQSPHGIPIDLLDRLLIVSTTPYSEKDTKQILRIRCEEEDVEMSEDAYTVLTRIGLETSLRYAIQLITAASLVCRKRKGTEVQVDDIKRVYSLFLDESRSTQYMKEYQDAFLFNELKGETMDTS
Sequence of proteins of HEK293T cells transiently overexpressing caspase-6 (Homo sapiens, UniProt Q00839) (Q00839 whole entry): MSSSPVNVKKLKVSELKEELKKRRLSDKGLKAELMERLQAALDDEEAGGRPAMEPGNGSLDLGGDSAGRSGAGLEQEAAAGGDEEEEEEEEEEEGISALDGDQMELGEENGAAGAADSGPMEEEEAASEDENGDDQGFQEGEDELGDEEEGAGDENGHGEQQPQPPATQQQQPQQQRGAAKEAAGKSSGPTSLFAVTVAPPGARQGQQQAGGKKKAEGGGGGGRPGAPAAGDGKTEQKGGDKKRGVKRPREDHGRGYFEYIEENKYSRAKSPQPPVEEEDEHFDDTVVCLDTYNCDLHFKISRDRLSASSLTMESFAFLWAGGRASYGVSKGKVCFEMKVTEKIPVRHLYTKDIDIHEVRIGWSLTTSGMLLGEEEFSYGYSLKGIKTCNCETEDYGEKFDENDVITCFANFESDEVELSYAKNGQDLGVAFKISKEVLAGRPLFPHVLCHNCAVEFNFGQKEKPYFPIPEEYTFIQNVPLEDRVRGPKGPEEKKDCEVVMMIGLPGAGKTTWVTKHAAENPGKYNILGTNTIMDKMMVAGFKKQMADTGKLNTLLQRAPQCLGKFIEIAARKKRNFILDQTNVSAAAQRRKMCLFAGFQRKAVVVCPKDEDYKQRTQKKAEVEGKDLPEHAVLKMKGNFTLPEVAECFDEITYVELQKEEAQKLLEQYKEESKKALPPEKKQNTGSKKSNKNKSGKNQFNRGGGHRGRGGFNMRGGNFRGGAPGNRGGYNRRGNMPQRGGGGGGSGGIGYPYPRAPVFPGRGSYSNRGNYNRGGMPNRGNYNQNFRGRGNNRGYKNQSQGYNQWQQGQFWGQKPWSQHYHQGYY

For `C=CS(=O)(=O)N1C[C@H](C(=O)Nc2ccc(OC(F)(F)F)cc2)C[C@@H](c2ccccc2)C1` [3a], the enrich.exp.med in assay [1] (Comp, protein ZMPSTE24 O75844) turned out to be 1.01; in assay [2], 0.6961; in [3] (Comp, protein DNAJA1 P31689), 1.02; in assay [4] it was 0.6156; in assay [5], 0.5872; in assay [6], 0.8762. For the same compound, the enrich.exp.med amounted to 0.6677 in assay [7]; 0.6389 in [8]; 0.7588 in assay [9]; 0.6324 in assay [10]; 0.8422 in assay [11]; 0.6126 in assay [12]. Further, the enrich.exp.med amounted to 0.6553 in assay [13], 0.5956 in [14] and 0.7589 in assay [15]. Further, the enrich.exp.med.lin was 2.0144 in [1] (setting [16]) and 2.028 in assay [3] (setting [17]). In addition, the enrich.exp.med.log2 in assay [1] (setting [16]) worked out at 1.01; in assay [3] (setting [17]), 1.02.
